Experimental data as given in ChEMBL document CHEMBL6103647, “Analgesic Grayanane-Derived Diterpenoids from the Flowers of Rhododendron molle” (J Nat Prod, 2025).

Legend:
[1] = test system: Mus musculus; assay: Analgesic activity against acetic acid-induced ip dosed Kunming writhing mouse model assessed as effective dose pre-incubated for 15 mins followed by acetic acid addition and measured after 15 mins; format: functional; conditions: 0.25 h
[2] = Therapeutic index, ratio of LD50 for toxicity in ip dosed Kunming mouse assessed as lethal dose to ED50 for analgesic activity against acetic acid-induced Kunming writhing mouse model assessed as effective dose; format: organism-based; conditions: in vivo, read-out: TI
[3] = test system: Mus musculus; assay: Analgesic activity against acetic acid-induced Kunming writhing mouse model assessed as inhibition of writhing at 1 mg/kg, ip pre-incubated for 15 mins followed by acetic acid addition and measured after 15 mins relative to control; format: functional; conditions: 0.25 h
[4] = test system: Mus musculus; assay: Analgesic activity against acetic acid-induced Kunming writhing mouse model assessed as inhibition of writhing at 0.2 mg/kg, ip pre-incubated for 15 mins followed by acetic acid addition and measured after 15 mins relative to control; format: functional; conditions: 0.25 h
[5] = test system: Mus musculus; assay: Analgesic activity against acetic acid-induced Kunming writhing mouse model assessed as inhibition of writhing at 5 mg/kg, ip pre-incubated for 15 mins followed by acetic acid addition and measured after 15 mins relative to control; format: functional; conditions: 0.25 h
[6] = Toxicity in Kunming mouse at 5 mg/kg, ip administered for 15 mins; format: organism-based; conditions: in vivo, 0.25 h
[7] = Toxicity in ip dosed Kunming mouse assessed as lethal dose; format: organism-based; conditions: in vivo

Row | Structure (SMILES) | inhibition in vivo at 1 mg/kg [3] | inhibition in vivo at 0.2 mg/kg [4] | inhibition in vivo at 5 mg/kg [5] | also measured
1 | CC1(C)[C@@H](O)[C@H](O)[C@H]2[C@](C)(O)[C@@H]3CC[C@@H]4[C@@H](O)[C@@]3(C[C@@H](O)[C@@]21O)C[C@@]4(C)O | – | – | – | ED50 [1]: 0.073 mg/kg; selectivity ratio [2]: 24.5
2 | CC1(C)[C@@H](O)[C@H](OC(=O)c2ccco2)[C@H]2[C@](C)(O)[C@@H]3CC[C@@H]4[C@@H](O)[C@@]3(C[C@@H](O)[C@@]21O)C[C@@]4(C)O | 50% | 71.5% | 74.1% | –
3 | CC1=C2CC[C@@H]3[C@@H](O)[C@@]2(C[C@H]2O[C@@H](c4ccc(O)cc4)O[C@@]24C1[C@@H](O)[C@H](O)C4(C)C)C[C@@]3(C)O (stereo not given in full) | 50% | – | 74.1% | –
4 | CC1(C)[C@@H](O)[C@H](OC(=O)c2cccnc2)[C@H]2[C@](C)(O)[C@@H]3CC[C@@H]4[C@@H](O)[C@@]3(C[C@@H](O)[C@@]21O)C[C@@]4(C)O | 50% | – | – | Activity [6]: Toxic
5 | CC1(C)[C@@H](O)[C@H](OC(=O)[C@@]2(O)C[C@@H](O)[C@H](O)[C@H](OC(=O)/C=C/c3ccc(O)cc3)C2)[C@H]2[C@](C)(O)[C@@H]3CC[C@@H]4[C@@H](O)[C@@]3(C[C@@H](O)[C@@]21O)C[C@@]4(C)O | 50% | 77.2% | 74.1% | LD50 [7]: 131 mg/kg; ED50 [1]: 0.074 mg/kg; selectivity ratio [2]: 1770
6 | CC1(C)[C@@H](O)[C@@H]2O[C@@H]3[C@H]4CC[C@H]5[C@@](C)(O)[C@@H]6[C@@H](O[C@@H]7[C@H]8CC[C@H]9[C@@](C)(O)[C@H]2[C@]1(O)[C@H](O)C[C@@]79C[C@@]8(C)O)[C@H](O)C(C)(C)[C@@]6(O)[C@H](O)C[C@@]35C[C@@]4(C)O | 50% | – | 74.1% | –
7 | CC(=O)O[C@@H]1C[C@]23C[C@@](C)(O)[C@@H]4CC[C@H]2[C@@](C)(O)[C@@H]2[C@@H](O[C@@H]5[C@H]6CC[C@H]7[C@@](C)(O)[C@@H]8[C@@H](O[C@H]43)[C@H](O)C(C)(C)[C@@]8(O)[C@H](OC(C)=O)C[C@@]57C[C@@]6(C)O)[C@H](O)C(C)(C)[C@@]12O | – | – | 74.1% | –
8 | CC1=C2CC[C@@H]3[C@@H](O)[C@@]2(C[C@@H](O)[C@@]2(O)[C@H]1[C@@H](Cl)[C@H](O)C2(C)C)C[C@@]3(C)O | 50% | – | – | –
9 | CN1CC[C@]23c4c5ccc(O)c4O[C@H]2[C@@H](O)C=C[C@H]3[C@H]1C5 [MORPHINE] | – | 39.4% | – | –
